In brackets after ≈: the same amount, converted by molar mass.
What was measured:
[1] = test system: Staphylococcus aureus 10 B; assay: Antibiotic activity in vitro (MIC); type: cell-based
[2] = test system: Staphylococcus aureus 2999i+p+; assay: Antibiotic activity in vitro (MIC); type: cell-based
[3] = test system: Staphylococcus aureus A 124; assay: Antibiotic activity in vitro (MIC); type: cell-based; settings: A124
[4] = test system: Staphylococcus aureus Wood 46; assay: Antibiotic activity in vitro (MIC); type: cell-based; settings: WOOD46
[5] = test system: Streptococcus pyogenes Aronson 1129; assay: Antibiotic activity in vitro (MIC); type: cell-based; settings: ARONSON1129
[6] = test system: Streptococcus pneumoniae III/84; assay: Antibiotic activity in vitro (MIC); type: cell-based
[7] = test system: Neisseria meningitidis 1316; assay: Antibiotic activity in vitro (MIC); type: cell-based
[8] = test system: Neisseria gonorrhoeae 1317/4; assay: Antibiotic activity in vitro (MIC); type: cell-based
[9] = test system: Haemophilus influenzae NCTC 4560; assay: Antibiotic activity in vitro (MIC); type: cell-based; settings: NCTC4560
[10] = test system: Escherichia coli 205; assay: Antibiotic activity in vitro (MIC); type: cell-based
[11] = test system: Escherichia coli 205 R + TEM; assay: Antibiotic activity in vitro (MIC); type: cell-based; settings: read-out: in vitro MIC
[12] = test system: Escherichia coli 16; assay: Antibiotic activity in vitro (MIC); type: cell-based
[13] = test system: Escherichia coli 2018; assay: Antibiotic activity in vitro (MIC); type: cell-based
[14] = test system: Escherichia coli UB 1005; assay: Antibiotic activity in vitro (MIC); type: cell-based; settings: UB1005
[15] = test system: Escherichia coli DC 2; assay: Antibiotic activity in vitro (MIC); type: cell-based; settings: DC2
[16] = test system: Escherichia coli B-1385; assay: Antibiotic activity in vitro (MIC); type: cell-based; settings: B1385
[17] = test system: Klebsiella pneumoniae 327; assay: Antibiotic activity in vitro (MIC); type: cell-based
[18] = test system: Serratia marcescens 344; assay: Antibiotic activity in vitro (MIC); type: cell-based
[19] = test system: Enterobacter cloacae P 99; assay: Antibiotic activity in vitro (MIC); type: cell-based; settings: P99, read-out: in vitro MIC
[20] = test system: Enterobacter cloacae ATCC 13047; assay: Antibiotic activity in vitro (MIC); type: cell-based; settings: ATCC13047
[21] = test system: Proteus mirabilis 774; assay: Antibiotic activity in vitro (MIC); type: cell-based
[22] = test system: Proteus mirabilis 1219; assay: Antibiotic activity in vitro (MIC); type: cell-based
[23] = test system: Proteus rettgeri 856; assay: Antibiotic activity in vitro (MIC); type: cell-based; settings: Providencia rettgeri
[24] = test system: Proteus morganii 2359; assay: Antibiotic activity in vitro (MIC); type: cell-based; settings: Morganella morganii
[25] = test system: Proteus morganii 1518; assay: Antibiotic activity in vitro (MIC); type: cell-based; settings: Morganella morganii
[26] = test system: Pseudomonas aeruginosa ATCC 12055; assay: Antibiotic activity in vitro (MIC); type: cell-based; settings: ATCC12055
[27] = test system: Pseudomonas aeruginosa K 799/61; assay: Antibiotic activity in vitro (MIC); type: cell-based; settings: K799/61, read-out: in vitro MIC
[28] = test system: Pseudomonas aeruginosa 143738R; assay: Antibiotic activity in vitro (MIC); type: cell-based
[29] = test system: Clostridium perfringens; assay: microbe, parasite or virus in culture; type: cell-based; settings: read-out: in vitro MIC
[30] = test system: Bacteroides fragilis L 01; assay: Antibiotic activity in vitro (MIC); type: cell-based; settings: L01
[31] = biological target: T1, dehydropeptidase from human kidneys (Homo sapiens, UniProt P16444); assay: Stability towards the enzyme dehydropeptidase from human kidneys; type: in vitro ADME; settings: for half-life: renal dehydropeptidase, enzyme dehydropeptidase from human kidneys, read-out: t1/2 (half-life period), stability towards dehydropeptidase (converted); for half-life period under the action of renal dehydropeptidase compared with compound B: comparison with the racemate compound B, in words
T1 construct: dehydropeptidase from human kidneys; from tissue; host or cells: human kidneys
T1 sequence (P16444 17-411): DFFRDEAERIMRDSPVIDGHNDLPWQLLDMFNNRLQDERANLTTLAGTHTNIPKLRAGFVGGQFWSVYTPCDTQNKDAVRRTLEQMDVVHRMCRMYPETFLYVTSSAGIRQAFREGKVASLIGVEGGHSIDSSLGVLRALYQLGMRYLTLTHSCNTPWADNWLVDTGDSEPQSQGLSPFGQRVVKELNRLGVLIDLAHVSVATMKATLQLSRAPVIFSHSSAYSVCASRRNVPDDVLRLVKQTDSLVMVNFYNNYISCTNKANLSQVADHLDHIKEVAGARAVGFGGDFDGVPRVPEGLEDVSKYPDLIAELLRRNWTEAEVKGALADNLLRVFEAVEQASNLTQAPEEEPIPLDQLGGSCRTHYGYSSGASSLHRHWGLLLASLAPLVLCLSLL
Description: The stability of compounds A, B and C towards the enzyme dehydropeptidase from human kidneys is as follows (expressed in half-life periods t1/2): […]

SMILES | MIC [1] | MIC [2] | MIC [3] | MIC [4] | MIC [5] | MIC [6] | MIC [7] | MIC [8] | MIC [9] | MIC [10] | MIC [11] | MIC [12] | MIC [13] | MIC [14] | MIC [15] | MIC [16] | MIC [17] | MIC [18] | MIC [19] | MIC [20] | also measured
C[C@@H](O)[C@H]1C(=O)N2C(C(=O)O)=C(CN)S[C@H]12 (relative stereo) [compound B, (1'R,5R,6S+1'S,5S,6R)-2-aminomethyl-6-(1'hydroxyethyl) -2-penem-3-carboxylic acid, reference compound] | 0.1 µg/mL (≈ 0.409 µM) | 0.2 µg/mL (≈ 0.819 µM) | 0.2 µg/mL (≈ 0.819 µM) | 0.1 µg/mL (≈ 0.409 µM) | 0.5 µg/mL (≈ 2.05 µM) | 0.2 µg/mL (≈ 0.819 µM) | 1 µg/mL (≈ 4.09 µM) | 1 µg/mL (≈ 4.09 µM) | 2 µg/mL (≈ 8.19 µM) | 8 µg/mL (≈ 32.8 µM) | 8 µg/mL (≈ 32.8 µM) | 8 µg/mL (≈ 32.8 µM) | 4 µg/mL (≈ 16.4 µM) | 16 µg/mL (≈ 65.5 µM) | 16 µg/mL (≈ 65.5 µM) | 8 µg/mL (≈ 32.8 µM) | 4 µg/mL (≈ 16.4 µM) | 8 µg/mL (≈ 32.8 µM) | 8 µg/mL (≈ 32.8 µM) | 16 µg/mL (≈ 65.5 µM) | MIC [21]: 4 µg/mL (≈ 16.4 µM); MIC [22]: 8 µg/mL (≈ 32.8 µM); MIC [23]: 1 µg/mL (≈ 4.09 µM); MIC [24]: 2 µg/mL (≈ 8.19 µM); MIC [25]: 4 µg/mL (≈ 16.4 µM); MIC [26]: 0.1 µg/mL (≈ 0.409 µM); MIC [27]: 0.2 µg/mL (≈ 0.819 µM); MIC [28]: 2 µg/mL (≈ 8.19 µM); MIC [29]: 4 µg/mL (≈ 16.4 µM); MIC [30]: 1 µg/mL (≈ 4.09 µM); half-life [31]: 2.2 h
C[C@@H](O)[C@H]1C(=O)N2C(C(=O)O)=C(CN)S[C@H]12 [compound A, (5R,6S)-2-aminomethyl-6-[(1'R)-1-hydroxyethyl]-2-penem-3-carboxylic acid] | 0.05 µg/mL (≈ 0.205 µM) | 0.05 µg/mL (≈ 0.205 µM) | 0.1 µg/mL (≈ 0.409 µM) | 0.05 µg/mL (≈ 0.205 µM) | 0.2 µg/mL (≈ 0.819 µM) | 0.1 µg/mL (≈ 0.409 µM) | 0.5 µg/mL (≈ 2.05 µM) | 0.5 µg/mL (≈ 2.05 µM) | 1 µg/mL (≈ 4.09 µM) | 2 µg/mL (≈ 8.19 µM) | 4 µg/mL (≈ 16.4 µM) | 4 µg/mL (≈ 16.4 µM) | 2 µg/mL (≈ 8.19 µM) | 4 µg/mL (≈ 16.4 µM) | 8 µg/mL (≈ 32.8 µM) | 4 µg/mL (≈ 16.4 µM) | 2 µg/mL (≈ 8.19 µM) | 4 µg/mL (≈ 16.4 µM) | 4 µg/mL (≈ 16.4 µM) | 4 µg/mL (≈ 16.4 µM) | MIC [21]: 1 µg/mL (≈ 4.09 µM); MIC [22]: 2 µg/mL (≈ 8.19 µM); MIC [23]: 0.5 µg/mL (≈ 2.05 µM); MIC [24]: 0.5 µg/mL (≈ 2.05 µM); MIC [25]: 2 µg/mL (≈ 8.19 µM); MIC [26]: 0.05 µg/mL (≈ 0.205 µM); MIC [27]: 0.1 µg/mL (≈ 0.409 µM); MIC [28]: 0.5 µg/mL (≈ 2.05 µM); MIC [29]: 2 µg/mL (≈ 8.19 µM); MIC [30]: 0.5 µg/mL (≈ 2.05 µM); half-life period under the action of renal dehydropeptidase compared with compound B [31]: considerably greater half-life period
NCC1=C(C(=O)O)N2C(=O)[C@H](CO)[C@H]2S1 [compound C, (5R,6S)-2-aminomethyl-6-hydroxymethyl-2-penem-3-carboxylic acid] | 0.2 µg/mL (≈ 0.869 µM) | 0.5 µg/mL (≈ 2.17 µM) | 1 µg/mL (≈ 4.34 µM) | 0.2 µg/mL (≈ 0.869 µM) | 2 µg/mL (≈ 8.69 µM) | 0.5 µg/mL (≈ 2.17 µM) | 1 µg/mL (≈ 4.34 µM) | 1 µg/mL (≈ 4.34 µM) | 1 µg/mL (≈ 4.34 µM) | 1 µg/mL (≈ 4.34 µM) | 2 µg/mL (≈ 8.69 µM) | 2 µg/mL (≈ 8.69 µM) | 1 µg/mL (≈ 4.34 µM) | 2 µg/mL (≈ 8.69 µM) | 4 µg/mL (≈ 17.4 µM) | 2 µg/mL (≈ 8.69 µM) | 1 µg/mL (≈ 4.34 µM) | 2 µg/mL (≈ 8.69 µM) | 4 µg/mL (≈ 17.4 µM) | 4 µg/mL (≈ 17.4 µM) | MIC [21]: 1 µg/mL (≈ 4.34 µM); MIC [22]: 4 µg/mL (≈ 17.4 µM); MIC [23]: 0.5 µg/mL (≈ 2.17 µM); MIC [24]: 1 µg/mL (≈ 4.34 µM); MIC [25]: 2 µg/mL (≈ 8.69 µM); MIC [26]: 0.2 µg/mL (≈ 0.869 µM); MIC [27]: 0.5 µg/mL (≈ 2.17 µM); MIC [28]: 2 µg/mL (≈ 8.69 µM); MIC [29]: 32 µg/mL (≈ 139 µM); MIC [30]: 2 µg/mL (≈ 8.69 µM); half-life period under the action of renal dehydropeptidase compared with compound B [31]: considerably greater half-life period; half-life [31]: 5.5 h
